According to patent US11590117B2, “Treatment of a hematologic malignancy with 2-(4-chlorophenyl)-n-((2-(2,6-dioxopiperidin-3-yl)-1-oxoisoindolin-5-yl)methyl)-2,2-difluoroacetamide” (priority 2016, dated 2023):
Read-outs that look alike come from different tables or passages of the source.

Key:
[1] = system: AML cell lines; test: CellTiter-Glo (CTG) cell proliferation assay, 72 hours, panel of 11 AML cell lines; assay type: cell-based; details: Homo sapiens, 10 out of the 11 AML cell lines tested (sensitive lines), read-out: antiproliferative IC50 values (range)
Procedure: Preparation of Solutions of Test Article: Compounds were plated into black 384-well plates (Corning Inc.) to a final DMSO volume of 0.1% assuming a maximal volume of 50 μL. A 10-point dose response starting at 10 μM with a 1:3 dilution was printed in duplicate by acoustic dispense using the EDC ATS-100 platform.
Cell Proliferation Assays: The effect of Compound 1 on the proliferation/viability of the hematological cell lines (Table 1 Table, Table 2 and Table 3), THLE-2, or PBMCs was assessed after 72 hours incubation using CTG (Promega), according to manufacturer's instructions. Hematological cell lines were dispensed into compound plates by a Multidrop™ Combi Reagent Dispenser (Thermo Scientific, Waltham, Mass.) at a concentration of 0.1 to 0.3×10^6 cells per mL in a 50 μL total volume. […] At 72 hours, 25 μL per well of CTG was dispensed by a Multidrop™ Combi Reagent Dispenser and adenosine triphosphate (ATP) release by viable cells was measured as relative luminescence units after 30 minutes using the Envision platform.
Results. […] Compound 1 inhibited cell proliferation in 10 out of 11 AML cell lines assessed, as determined by the quantitative assessment of ATP levels present in the media after 72 hours. […]
Proliferation was assessed using the CellTitre-Glo® assay. […] The IC50 for inhibition of cell growth by Compound 1 was determined for each cell line using ActivityBase software.

[2] = system: BFU-E (erythroid progenitors); test: cells; assay type: cell-based, human; details: for IC50: Homo sapiens
Procedure: Experimental design: human bone marrow (BM) CD34+ cells were used to evaluate the potential for BM toxicity induced by Compound 1. In order to test the effects of Compound 1 on the functionality of hematopoietic progenitors, colony forming assays were done by seeding BM CD34+ cells on MethoCult medium. Cells were seeded directly in MethoCult with Compound 1 or cultured in liquid medium with Compound 1 for 2, 4, or 8 hours and then seeded in compound-free MethoCult to evaluate the effect of different exposure times. Early apoptosis induced by Compound 1 on HSC was analyzed by flow cytometry.
Results. Colony forming units (CFU) of common granulocyte/erythrocyte/monocyte/megakaryocyte (CFU-GEMM), CFU of granulocyte/monocyte (CFU-GM), burst forming unit of erythrocytes (BFU-E), and CFU of erythrocytes (CFU-E) in cultures exposed to Compound 1 or DMSO were scored on STEMvision.
Bone marrow CD34+ cells from normal donors were incubated with Compound 1 in MethoCult medium. Colony numbers for CFU-GM and BFU-E progenitors were counted using STEMVision automatic colony counting instrument and software and normalized to the colony number of the DMSO control. Results plotted as percentage of DMSO control vs concentration of Compound 1 were used to determine IC50 values. Data are shown as mean standard error of the mean of n=3 technical replicates. Donors were HD10, HD14, HD18, and HD19.
FIGS. 33A and 33B provide, colony numbers after preincubation of bone marrow CD34+ cells with Compound 1 for 4 or 8 hours, respectively, in Iscove's medium, followed by incubation in MethoCult medium without Compound 1 for 14 days. FIG. 33C provides colony numbers after incubation of bone marrow CD34+ cells in MethoCult medium in continuous presence of Compound 1 for 14 days.

[3] = system: HR-MDS, sAML and normal bone marrow progenitors; test: SL/M2 stromal co-culture colony forming assay (cell survival assay); assay type: cell-based, human
Procedure: Methods. Mouse stromal cells SL/M2 stably expressing human interleukin-3 (IL-3), granulocyte colony stimulating factor (G-CSF) and stem cell factor (SCF) were cultured to confluency, followed by gamma-irradiation. Human CD34+ bone marrow cells isolated from 3 high-risk MDS patients (HR-MDS), 3 secondary AML patients arising from MDS (sAML) and 5 age-matched healthy donors were then cultured with inactivated SL/M2 cells for a week. Next, human progenitor cells were quantified by FACS and cells were plated in methylcellulose for colony forming assay (cell survival assay). After two weeks, 20-25 colonies were picked from each condition, resuspended and replated in fresh methylcellulose for 2nd round of colony forming assay (cell self-renewal assay).

[4] = system: HL-60 human AML cells; test: HL-60 IV AML xenograft model, survival study; assay type: in vivo, SCID mice
Procedure: In this study, Compound 1 antitumor activity in the HL-60 IV AML xenograft model was studies. In this model, HL-60 human AML cells engraft in host BM and internal organs (eg, spleen, liver) and animals develop progressive peripheral leukocytosis. Female severe combined immunodeficiency (SCID) mice were inoculated with HL-60 cells by tail vein injection. To understand the effect of Compound 1 on the xenografted HL-60 cells, animals were dosed intraperitoneal (IP) with vehicle or Compound 1 (0.5, 1, 2.5, and 5 mg/kg) once daily (QD)×5 between Weeks 3 and 4 post-engraftment (AP6516, survival study) or animals were dosed IP twice daily (BID) with vehicle or Compound 1 for 5 or 10 consecutive days (5 mg/kg BID×5 or 2.5 mg/kg, BID×10) between Weeks 6 and 8 post-engraftment (Study AP6982, % human CD33+[hCD33+] cells in BM).
Tumor burden from the peripheral blood of HL-60-bearing animals was assessed by fluorescence-activated cell sorting (FACS) at Week 7 post-tumor cell inoculation. […] Mice from the vehicle control and Compound 1 treatment groups succumbed to disease burden starting on Day 54 for the vehicle control group and between Day 51 and Day 57 for the Compound 1 treatment groups. […] One mouse (1/8) from the 2.5 mg/kg Compound 1-treated group survived to study termination on Day 162.

In the case of `O=C1CCC(N2Cc3cc(CNC(=O)C(F)(F)c4ccc(Cl)cc4)ccc3C2=O)C(=O)N1` (centres unmarked) [Compound 1, 2-(4-chlorophenyl)-N-((2-(2,6-dioxopiperidin-3-yl)-1-oxoisoindolin-5-yl)methyl)-2,2-difluoroacetamide], the IC50 [1] is reported as 3 to 75 nM, the “reduction in number of BFU-E colonies” value ([2]; 8 hours exposure, Compound 1 ≥111 nM, donors HD46, HD47, HD48, HD50) is reported as “more than 50%” and the IC50 ([2]; 8 hours exposure, donors HD46, HD47, HD48, HD50, read-out: individual IC50 values, BFU-E colonies) is reported as 30 to 150 nM. The IC50 ([2]; CD34+ cells from four healthy donors, Compound 1 in MethoCult, read-out: IC50, inhibition of erythroid progenitors (BFU-E)) was 32 to 131 nM, the “colony formation (cell survival)” value [3] was “significant cytotoxicity” and the “mice surviving to study termination on Day 162” value ([4]; 2.5 mg/kg group) was 1/8. For the same molecule, the overall survival ([4]; 0.5, 1, 2.5, 5 mg/kg IP QD×5 between Weeks 3 and 4 post-engraftment) was “No overall survival benefit” and the “tumor burden from peripheral blood (FACS)” value ([4]; Week 7 post-tumor cell inoculation, 0.5, 1, 2.5, 5 mg/kg IP QD×5, vs vehicle) was “No effect”.
